# Experimental data reported in patent publication EP2803317B1, “MRI METHOD FOR MEASURING DIFFUSION PARAMETERS OF TRACER IN LIVING ORGAN TISSUE SPACE AND EXTRACELLULAR SPACE” (Peking University Third Hospital, priority 2012, dated 2013).
# Key:
# [1] = MRI tracer method: diffusion parameters of Gd-DTPA in brain ECS of SD rats, fitted from time-series MRI images; format: in vivo; details: for λ: tortuosity
# Protocol: (§1) A method for computing the physiological parameter in the living organism will be illustrated with the following embodiment. In the embodiment, Gadolinium-diethylenetriaminepentaacetic acid (Gd-DTPA) which is Mag-nevist solution produced by Bayer Schering Pharma AG was used as the tracer. The corresponding MRI signal intensities of the tracer with the actual concentration in agarose gel and rat brain were measured. Male Sprague Dawley rats weighing 250-300g were used in the experiment. The living organism used for measurement is the rat brain. A Siemens Magnetom Trio 3.0 T MRI system was used to obtain the rat brain images.
# (§2) In this embodiment, the position of the injection site Q and the depth of Gd-DTPA microinjection of the rat brains were determined by three-dimensional reconstructed image basing on the brain stereotaxic atlas. The specific method was: preparing skin, shaving between the eyes of rats about 4cm skin backwards along the midline of the skull and exposing the skull plate; then fixing the rats in a stereotactic apparatus and administrating the drug at the injection site Q using magnetic drug delivery system; rubbing off the skull plate at the entry point with an electric drill, setting a micro syringe into the brain and manually administrating 2µLGd-DTPA solution with the concentration of 10mM into the target location in three injection with the interval of 5min. The syringe was left for 10 min in the brain when drug injection was finished before the micro syringe was exited and the skin was sutured. Scanned images were taken in 15min, 30min, 1h, 2h, 3h, 4h, 6h, 9h and 12h and imaging parameters were set as the mentioned above.
# As shown in the FIG., the bias field is first to be correct to eliminate the signal strength deviation among the sequence of images; the image registration technique is then used to unify the position of the increment images with the referenced images; the diffusion model is finally solved via the distribution of the tracer concentration from different times obtained by the analysis of the signal strength increment.
# Although the tortuosity varies in different directions and remains unchanged in the same direction in equation (5), the real tortuosity probably varies in the same direction. The space variability of the tortuosity should be determined to accurately describe the real diffusion process. The tortuosity of a point (x, y, z) in space is: λ = λ(x, y, z) [formula] or written in a polar coordinates: λ = λ(r, θ, φ) [formula] the diffusion model is changed to: (∂C)/(∂t) = (D)/(λ((x, y, z))^2)(∇)^2 C−(Q)/(α)−k′C [formula]
# Although equation (10) fully considers the space variability of the tortuosity, the solution of equation (8) is difficult to get. The equation (8) is a partial differential formula with variable coefficients and usually has no analytic solution. The continuous problem can be turned into a discrete problem to solve the equation (10): ΔSI(t+Δt)−ΔSI(t) = (D)/(λ((x, y, z))^2)(∇)^2 (ΔSI) + (Q)/(α)k−k′ΔSI(t) + k′b [formula] wherein, Δt is the sampling time in each unit, [formula] Δi represents the space distance of sampling along the axis i. It depends on the space resolution of the image along the axis i.
# For the discrete equation (11), the space tortuosity λ, the loss ratio k' and the part volume ratio α can be fit by the least squares method, i.e. the solution of the below optimization problem is required: [formula]
# Write the equation (12) in a matrix form and get: min f(λ,α,k′) = ‖Ax−b‖2^2 [formula] wherein, the nonvanishing element in the line (x, y, z, t,:) of the matrix A is : ((∂)^2 ΔSI)/((∂)^2 r) + k−ΔSI + b [formula] the line (x, y, Z, t,) of the known vector b is: b(x,y,z,t,:) = ΔSI(t+Δt)−ΔSI(t) [formula] the substitution variable x is: x = ([(D)/(λ((x, y, z))^2),(Q)/(α),k′])^T [formula] […]
# [2] = MRI tracer method: diffusion parameters of Gd-DTPA in the skeletal muscle gap; format: in vivo; details: rat skeletal muscle gap
# Text: (§3) Although the above invention is for the brain ECS of the SD rat, the present invention is applicable to other the living organisms. […] The left high signal region adjacent to the femur is the Gd-DTPA's diffusion region after injection.
# [3] = MRI tracer method: diffusion parameters of Gd-DTPA in the glioma brain; format: in vivo; details: glioma brain of the rat
# Text: Table 8: the diffusion parameter of Gd-DTPA in the glioma brain of the rat
# [4] = MRI tracer method: distribution volume and macro clearance of Gd-DTPA in the skeletal muscle gap; format: in vivo; details: rat skeletal muscle gap
# Text: (§4) Calculation method about distribution volume (Vd), distribution volume fraction and general clearance of the tracer in the living organism is as follows: reconstructing the registered and subtracted images into axial images; quantitative measuring the signal increment region in image of each layer via the Matlab program as shown in figures; and recording the number of pixels in the increment region and the signal intensity value of each pixel. According to the integral principle, we can obtain the distribution volumes (Vd) of the tracer (Gd-DTPA) from different times in the brain hemisphere ECS via adding up the increment region of each layer. The distribution volume fraction of Gd-DTPA in the brain hemisphere ECS can be obtained by dividing the Vd from different times by the volume of the brain hemisphere of the rat. The macro clearance is defined as the total signal intensity at a previous time subtracting the total signal intensity at a later time, then dividing the initial total signal intensity.
# as §3
# [5] = MRI tracer method: distribution volume, distribution volume fraction and macro clearance of Gd-DTPA in the glioma brain; format: in vivo; details: glioma brain of the rat
# Text: as §4
# Using the same method as used in the brain ECS, we can learn the time-varying change rule of distribution volume of the Gd-DTPA in the glioma brain of the rat. Table 9: the time-varying change rule of distribution volume of the Gd-DTPA in the glioma brain of the rat
# [6] = MRI tracer method: distribution volume, distribution volume fraction and macro clearance of Gd-DTPA in brain hemisphere ECS after injection in caudate nucleus; format: in vivo, SD rats; details: for Macro clearance: injection to the caudate nucleus of eight SD rats; for Distribution Volume Fraction: rat brain hemisphere; for Distribution Volume Fraction / Distribution Volume (Vd): after injection in caudate nucleus; for Distribution Volume (Vd): rat brain
# Protocol: as §1, §2, §4
# The selected region in the FIG. is obtained by subtracting the image before increment from the increment image. The increment region is shown as the "bright region" and the other un-increment region is shown as the "dark region". […] Using the bulleted method above can measure the Vd, the distribution volume fraction and the macro clearance of the caudate nucleus.
# [7] = SD rat brain, caudate putamen (CPu), Gd-DTPA 2µL, 10mM microinjection
# [8] = SD rat brain, medial prefrontal cortex (mPFC), Gd-DTPA 2µL, 10mM microinjection
# [9] = SD rat brain, occipital cortex (Oc), Gd-DTPA 2µL, 10mM microinjection
# [10] = SD rat brain, substantianigra (SN), Gd-DTPA 2µL, 10mM microinjection
# [11] = SD rat brain, thalamus (T), Gd-DTPA 2µL, 10mM microinjection
# [12] = rats' caudate nucleus region, anisotropic, direction -X
# [13] = rats' caudate nucleus region, anisotropic, direction -Y
# [14] = rats' caudate nucleus region, anisotropic, direction -Z
# [15] = rats' caudate nucleus region, anisotropic, direction X
# [16] = rats' caudate nucleus region, anisotropic, direction Z
smiles,measurement,setting,value
"O=C([O-])CN(CCN(CC(=O)[O-])CC(=O)O)CCN(CC(=O)[O-])CC(=O)O.[Gd+3] [Gd-DTPA, Gadolinium-diethylenetriaminepentaacetic acid]",D^∗,[1]; [7],3.38 ×10^-4/mm^2·s^-1
same,k',[1]; [7],0.76 ×^10-4/mM· L^-1· s^-1
same,D^∗,[1]; [8],2.31 ×10^-4/mm^2·s^-1
same,k',[1]; [8],2.38 ×^10-4/mM· L^-1· s^-1
same,D^∗,[1]; [9],3.25 ×10^-4/mm^2·s^-1
same,k',[1]; [9],1.55 ×^10-4/mM· L^-1· s^-1
same,D^∗,[1]; [10],2.06 ×10^-4/mm^2·s^-1
same,k',[1]; [10],8.28 ×^10-4/mM· L^-1· s^-1
same,D^∗,[1]; [11],3.28 ×10^-4/mm^2·s^-1
same,k',[1]; [11],1.44 ×^10-4/mM· L^-1· s^-1
same,D^∗,[1]; [12],3.57 ± 0.88 ×10^-4/mm^2·s^-1
same,k',[1]; [12],7.14 ± 3.06 ×10^-5/mM·L^-1·s^-1
same,D^∗,[1]; [13],3.05 ± 0.93 ×10^-4/mm^2·s^-1
same,k',[1]; [13],7.59 ± 4.04 ×10^-5/mM·L^-1·s^-1
same,D^∗,[1]; [14],4.01 ± 0.60 ×10^-4/mm^2·s^-1
same,k',[1]; [14],7.88 ± 6.24 ×10^-5/mM·L^-1·s^-1
same,D^∗,[1]; [15],3.73 ± 1.10 ×10^-4/mm^2·s^-1
same,k',[1]; [15],7.67 ± 3.96 ×10^-5/mM·L^-1·s^-1
same,D^∗,[1]; [16],2.54 ± 1.27 ×10^-4/mm^2·s^-1
same,k',[1]; [16],7.74 ± 4.07 ×10^-5/mM·L^-1·s^-1
same,λ,"[1]; SD rat brain, caudate putamen (CPu)",1.24
same,λ,"[1]; SD rat brain, medial prefrontal cortex (mPFC)",1.50
same,λ,"[1]; SD rat brain, occipital cortex (Oc)",1.26
same,λ,"[1]; SD rat brain, substantianigra (SN)",1.59
same,λ,"[1]; SD rat brain, thalamus (T)",1.26
same,D^∗,[2]; direction -X,2.611 ×10^-4/mm^2·s^-1
same,k',[2]; direction -X,2.359 ×10^-4/mM·L^-1·s^-1
same,D^∗,[2]; direction -Y,8.235 ×10^-4/mm^2·s^-1
same,k',[2]; direction -Y,10.940 ×10^-4/mM·L^-1·s^-1
same,D^∗,[2]; direction -Z,7.154 ×10^-4/mm^2·s^-1
same,k',[2]; direction -Z,5.083 ×10^-4/mM·L^-1·s^-1
same,D^∗,[2]; direction X,2.930 ×10^-4/mm^2·s^-1
same,k',[2]; direction X,2.870 ×10^-4/mM·L^-1·s^-1
same,D^∗,[2]; direction Z,9.537 ×10^-4/mm^2·s^-1
same,k',[2]; direction Z,7.817 ×10^-4/mM·L^-1·s^-1
same,k',[3]; direction -X,3.31 ×10^-4/mM·L^-1·s^-1
same,k',[3]; direction -Y,3.12 ×10^-4/mM·L^-1·s^-1
same,k',[3]; direction -Z,3.05 ×10^-4/mM·L^-1·s^-1
same,k',[3]; direction X,3.13 ×10^-4/mM·L^-1·s^-1
same,k',[3]; direction Z,3.15 ×10^-4/mM·L^-1·s^-1
same,Vd,[4]; time 5 min,407 mm^3
same,Vd,[4]; time 10 min,383 mm^3
same,Vd,[4]; time 15 min,234 mm^3
same,Vd,[4]; time 25 min,0 mm^3
same,Macro clearance,[4]; time(h) 5-10,0.28 h⁻¹
same,Macro clearance,[4]; time(h) 10-15,0.36 h⁻¹
same,Macro clearance,[4]; time(h) 15-25,0.36 h⁻¹
same,Macro clearances,[5]; time 0.5-1 h,0.23 h⁻¹
same,Macro clearances,[5]; time 1-2 h,0.36 h⁻¹
same,Macro clearances,[5]; time 2-3 h,0.41 h⁻¹
same,Distribution Volume Fraction,[5]; time 0.25 h,4.85%
same,Vd,[5]; time 0.25 h,466 mm^3
same,Distribution Volume Fraction,[5]; time 0.5 h,6.78%
same,Vd,[5]; time 0.5 h,651 mm^3
same,Distribution Volume Fraction,[5]; time 1 h,7.50%
same,Vd,[5]; time 1 h,720 mm^3
same,Distribution Volume Fraction,[5]; time 2 h,5.24%
same,Vd,[5]; time 2 h,503 mm^3
same,Distribution Volume Fraction,[5]; time 3 h,0%
same,Vd,[5]; time 3 h,0 mm^3
same,Macro clearance,[6]; time 1-2 h,0.23 h⁻¹
same,Macro clearance,[6]; time 2-3 h,0.12 h⁻¹
same,Macro clearance,[6]; time 3-4 h,0.19 h⁻¹
same,Macro clearance,[6]; time 4-6 h,0.11 h⁻¹
same,Macro clearance,[6]; time 6-9 h,0.06 h⁻¹
same,Macro clearance,[6]; time 9-12 h,0.08 h⁻¹
same,Distribution Volume Fraction,[6]; time 1 h,7.55%
same,Distribution Volume Fraction,[6]; time 2 h,9.48%
same,Distribution Volume Fraction,[6]; time 3 h,9.45%
same,Distribution Volume Fraction,[6]; time 4 h,8.20%
same,Distribution Volume Fraction,[6]; time 6 h,6.96%
same,Distribution Volume Fraction,[6]; time 9 h,4.29%
same,Distribution Volume Fraction,[6]; time 12 h,1.33%
same,Distribution Volume (Vd),[6]; time 1 h,724.75 mm^3
same,Distribution Volume (Vd),[6]; time 2 h,910.50 mm^3
same,Distribution Volume (Vd),[6]; time 3 h,907.25 mm^3
same,Distribution Volume (Vd),[6]; time 4 h,787.57 mm^3
same,Distribution Volume (Vd),[6]; time 6 h,668.50 mm^3
same,Distribution Volume (Vd),[6]; time 9 h,411.57 mm^3
same,Distribution Volume (Vd),[6]; time 12 h,128.13 mm^3
